Measurements: US20130116586A1, “USE OF DRONEDARONE OR A PHARMACEUTICALLY ACCEPTABLE SALT THEREOF FOR THE PREPARATION OF A DRUG FOR THE PREVENTION OF ATRIAL FIBRILLATION” (SANOFI, priority 2011, published 2013)
Structures can show the parent of a compound that is named as a salt.

Legend:
[1] = tested on: patients with permanent atrial fibrillation or flutter; assay: PALLAS study: dronedarone 400 mg bid vs placebo on top of standard therapy; assay type: in vivo, human; settings: for unplanned cardiovascular hospitalizations and mortality, events recorded: 400 mg bid; for relative risk of cardiovascular hospitalizations and deaths vs placebo: Cox model
Source text: The PALLAS trial (Permanent Atrial fibriLLAtion outcome Study) using dronedarone on top of standard therapy was designed to evaluate the efficacy of dronedarone on major cardiovascular events in a patient population with permanent AF.
The primary efficacy objective of PALLAS was the reduction of: • 1) major cardiovascular events (stroke, systemic arterial embolism, myocardial infarction or cardiovascular death), or • 2) unplanned cardiovascular hospitalization or death from any cause.
Patients with permanent AF were at least 65 years of age with a 12-lead ECG recorded no more than 14 days prior to randomization showing AF or atrial flutter, documentation in the form of ECG rhythm strips or medical reports indicating AF or atrial flutter for at least 6 months prior to randomization without evidence of sinus rhythm in the intervening period. In addition, both the patient and physician must have reached a decision to allow AF to continue without further efforts to restore sinus rhythm.
Patients were randomized to dronedarone 400 mg bid or placebo.
• 1. NYHA class IV or recent unstable NYHA class III heart failure, where unstable refers to a requirement for intensification of therapy (e.g., increased diuretic, ACE/ARB, or inotropic dosage due to exacerbated symptoms within one month prior to randomization). • 2. Sustained daytime bradycardia <50 bpm without a permanent pacemaker • 3. QTc interval ≧500 ms, or 530 ms if there is ventricular paced rhythm • 4. Hypersensitivity to the active substance or to any of its excipients • 5. Need for co-administration of strong CYP3A4 inhibitors, such as ketoconazole, itraconazole, voriconazole, telithromycin, clarithromycin, nefazodone and ritonavir leading to increased systemic exposure to dronedarone • 6. Need for co-administration of medicinal products capable of inducing torsades de pointes ventricular tachycardia, such as phenothiazines, cisapride, bepridil, tricyclic antidepressants, terfenadine and certain oral macrolides, or Vaughan Williams class I and III antiarrhythmic agents) • 7. Severe hepatic impairment
Treatment was initiated using tablets containing either the placebo or an amount of dronedarone hydrochloride corresponding to 400 mg of dronedarone at a rate of one tablet twice a day with the morning and evening meals.
The anticipated duration of the treatment was variable according to the time at which each patient was included in the study, and could range between 3 months for the last patient included and 3 years for the first patient included.
The results obtained in this trial were analysed by the Kaplan Meier method for the figures, and the relative risk (RR) was estimated using Cox's proportional-effect regression model.
The relative risk (RR) is the ratio of the rates of occurrence of a hospitalization or of a death among the patients on dronedarone, relative to the patients on placebo.

[2] = tested on: patients with atrial fibrillation/atrial flutter; assay: ATHENA trial, including post-hoc exploratory analysis of patients with AF on all follow-up ECGs; assay type: in vivo, human; settings: for patients displaying AF on all ECGs recorded during follow-up: of 2301 patients assigned to dronedarone
Description: • AF/AFL atrial fibrillation or atrial flutter • ATHENA A placebo-controlled, double-blind, parallel arm Trial to assess the efficacy of dronedarone 400 mg bid for the prevention of cardiovascular Hospitalization or death from any cause in patiENts with Atrial fibrillation/atrial flutter • PALLAS Permanent Atrial fibriLLAtion Outcome Study Using Dronedarone on Top of Standard Therapy
For the sake of hypothesis generation, these patients can be considered as having permanent AF. In a post-hoc exploratory analysis of this cohort, the primary study endpoint (time to first CV hospitalization or all-cause death) occurred in 95 patients in the placebo group and 46 in the dronedarone group (HR 0.742, 95% Cl 0.522-1.056; p=0.096). Considering first unplanned CV hospitalizations, 85 patients in the placebo group and 37 on dronedarone reached this secondary study endpoint (HR 0.67, 95% Cl 0.46-0.99; p=0.04). There was a similar trend toward reduction in major cardiovascular events (stroke, ACS, cardiovascular death). These observations from ATHENA supported testing the efficacy of dronedarone for prevention of major cardiovascular events in patients with permanent AF.

[3] = tested on: patients with permanent atrial fibrillation; settings: in vivo; cited from earlier work
[4] = tested on: patients with atrial fibrillation; settings: in vivo; cited from earlier work
[5] = tested on: patients hospitalized with symptomatic unstable heart failure and severe left ventricular systolic function; settings: trial terminated early; cited from earlier work
[6] = tested on: patients with atrial fibrillation/atrial flutter; settings: whole ATHENA trial; cited from earlier work

## CCCCc1oc2ccc(NS(C)(=O)=O)cc2c1C(=O)c1ccc(OCCCN(CCCC)CCCC)cc1 [dronedarone hydrochloride]
[1]; preliminary results, placebo group 72 events
  unplanned cardiovascular hospitalizations and mortality, events recorded: 114 events
[1]; preliminary results, 95% CI 0.98-6.53, p=0.0462
  relative risk of cardiovascular deaths vs placebo: 2.53
[1]; preliminary results, 95% CI 1.15-2.12, p=0.0039
  relative risk of cardiovascular hospitalizations vs placebo: 1.56
[1]; preliminary results, 95% CI 1.22-3.99, p=0.0070
  relative risk of cardiovascular hospitalizations for heart failure vs placebo: 2.21
[1]; preliminary results, 95% CI 1.66-3.74, p<0.0001
  relative risk of heart failure related episodes vs placebo: 2.49
[1]; preliminary results, 95% CI 1.20, 2.17, p=0.001
  relative risk of cardiovascular hospitalizations and deaths vs placebo: 1.62
[1]; preliminary results, placebo group 6 events
  cardiovascular mortality, events recorded: 15 events
[1]; preliminary results, placebo group 16 events
  cardiovascular hospitalizations for heart failure, events recorded: 35 events
[1]; preliminary results, placebo group 33 events
  heart failure, events recorded: 80 events
[1]; preliminary results, placebo group 68 events
  unplanned cardiovascular hospitalizations, events recorded: 104 events
[1]; preliminary results, subgroup with NYHA class III heart failure, 95% CI 1.02, 2.44, p=0.041
  relative risk of cardiovascular hospitalizations and death vs placebo: 1.58
[1]; preliminary results, subgroup with left ventricular ejection fraction (LVEF)<40%, 95% CI 1.20, 2.30, p=0.002
  relative risk of cardiovascular hospitalizations and death vs placebo: 1.66
[1]; preliminary results, subgroup with symptomatic heart failure, 95% CI 1.01, 2.09, p=0.043
  relative risk of cardiovascular hospitalizations and death vs placebo: 1.46
[1]; results (III.1'), placebo group 67 events
  unplanned cardiovascular hospitalizations and mortality, events recorded: 127 events
[1]; results (III.1'), p<0.001
  relative risk of cardiovascular hospitalizations and deaths vs placebo: 1.95
[1]; results (III.2'), 95% CI 1.00-4.49, p=0.046
  relative risk of cardiovascular deaths vs placebo: 2.11
[1]; results (III.2'), placebo group 10 events
  cardiovascular mortality, events recorded: 21 events
[1]; results (III.3'), 95% CI 1.44-2.70, p<0.001
  relative risk of unplanned hospitalizations for cardiovascular causes vs placebo: 1.97
[1]; results (III.3'), placebo group 59 events
  unplanned hospitalizations for cardiovascular causes, events recorded: 113 events
[1]; results (III.4'), 95% CI 1.10-2.99, p=0.02
  relative risk of cardiovascular hospitalizations for heart failure vs placebo: 1.81
[1]; results (III.4'), placebo group 24 events
  cardiovascular hospitalizations for heart failure, events recorded: 43 events
[1]; results (III.9), 95% CI 1.57-2.98, p<0.001
  relative risk of a heart failure episode or hospitalizations for heart failure vs placebo: 2.16
[1]; results (III.9), placebo group 55 events
  heart failure episode or hospitalizations for heart failure, events recorded: 115 events

## CCCCc1oc2ccc(NS(C)(=O)=O)cc2c1C(=O)c1ccc(OCCCN(CCCC)CCCC)cc1 [dronedarone, 2-n-Butyl-3-[4-(3-di-n-butylaminopropoxy)benzoyl]-5-methylsulphonamidobenzofuran]
[2]; placebo 12.7%
  patients displaying AF on all ECGs recorded during follow-up: 7.7%
[2]; placebo 296 of 2,327
  patients displaying AF on all ECGs recorded during follow-up: 178 patients
[2]; post-hoc cohort with AF on all ECGs, 95% CI 0.46-0.99, p=0.04
  HR for first unplanned CV hospitalizations vs placebo: 0.67
[2]; post-hoc cohort with AF on all ECGs, 95% CI 0.522-1.056, p=0.096
  HR for primary study endpoint (first CV hospitalization or all-cause death) vs placebo: 0.742
[2]; post-hoc cohort with AF on all ECGs, placebo 85
  first unplanned CV hospitalizations, patients reaching endpoint: 37 patients
[2]; post-hoc cohort with AF on all ECGs, placebo 95
  primary study endpoint (time to first CV hospitalization or all-cause death), patients with event: 46 patients
[3]
  rate control: has rate-controlling properties
[4]
  rhythm-controlling efficacy: has been demonstrated
[1]; preliminary review of the unblinded data
  co-primary outcomes, cardiovascular hospitalizations and heart failure events in the dronedarone group: highly significant excess of events
[5]
  mortality vs placebo: increased mortality
[6]
  major clinical outcomes including cardiovascular hospitalizations or cardiovascular mortality, and stroke: reduced major clinical outcomes
